The conditions of the data set: Crystal; visual observation.

± gives the expanded uncertainty stated by the source.

Turning to `O=C(O)c1ccsc1` [β-thiophenecarboxylic acid], the Normal melting temperature was determined as 138.70 ± 1.3 °C.

The record behind these values is the NIST ThermoML archive (doi:10.1016/j.tca.2014.11.008).
